# Data: patent publication US10405547B2, “Substituted cyclic amides as herbicides” (FMC Corporation, priority 2015, dated 2019)
# How the values were obtained:
# Assay type in all cases: in vivo
# [1] = tested on: barnyardgrass (Echinochloa crus-galli); experiment: Test A preemergence, barnyardgrass; conditions: 0 to 100 scale (0 no effect, 100 complete control)
# In short: (§1)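 Greenhouse assay; ~10 d; visual injury vs untreated control, scored 0 = no effect through 100 = complete control. Post-emergent seedlings at one–two leaves; pre-emergent seeds in loam/sand given a directed soil spray.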
# kochia (Kochia scoparia) [2] = experiment: Test A preemergence, kochia; conditions: 0 to 100 scale (0 no effect, 100 complete control)
# In short: as §1
# [3] = tested on: ragweed (common ragweed, Ambrosia elatior); experiment: Test A preemergence, ragweed; conditions: 0 to 100 scale (0 no effect, 100 complete control)
# In short: as §1
# [4] = tested on: ryegrass, Italian (Lolium multiflorum); experiment: Test A preemergence, Italian ryegrass; conditions: 0 to 100 scale (0 no effect, 100 complete control)
# In short: as §1
# [5] = tested on: foxtail, giant (Setaria faberii); experiment: Test A preemergence, giant foxtail; conditions: 0 to 100 scale (0 no effect, 100 complete control)
# In short: as §1
# [6] = tested on: pigweed (Amaranthus retroflexus); experiment: Test A preemergence, pigweed; conditions: 0 to 100 scale (0 no effect, 100 complete control)
# In short: as §1
# [7] = tested on: barnyardgrass (Echinochloa crus-galli); experiment: Test A postemergence, barnyardgrass; conditions: visual injury, 0 to 100 scale (0 no effect, 100 complete control), approximately 10 days
# In short: as §1
# kochia (Kochia scoparia) [8] = experiment: Test A postemergence, kochia; conditions: visual injury, 0 to 100 scale (0 no effect, 100 complete control), approximately 10 days
# In short: as §1
# [9] = tested on: ragweed (common ragweed, Ambrosia elatior); experiment: Test A postemergence, ragweed; conditions: visual injury, 0 to 100 scale (0 no effect, 100 complete control), approximately 10 days
# In short: as §1
# [10] = tested on: ryegrass, Italian (Lolium multiflorum); experiment: Test A postemergence, Italian ryegrass; conditions: visual injury, 0 to 100 scale (0 no effect, 100 complete control), approximately 10 days
# In short: as §1
# [11] = tested on: foxtail, giant (Setaria faberii); experiment: Test A postemergence, giant foxtail; conditions: visual injury, 0 to 100 scale (0 no effect, 100 complete control), approximately 10 days
# In short: as §1
# [12] = tested on: pigweed (Amaranthus retroflexus); experiment: Test A postemergence, pigweed; conditions: visual injury, 0 to 100 scale (0 no effect, 100 complete control), approximately 10 days
# In short: as §1
# [13] = tested on: blackgrass (Alopecurus myosuroides); experiment: Test A postemergence, blackgrass; conditions: visual injury, 0 to 100 scale (0 no effect, 100 complete control), approximately 10 days
# In short: as §1
# [14] = tested on: galium (catchweed bedstraw, Galium aparine); experiment: Test A postemergence, galium; conditions: visual injury, 0 to 100 scale (0 no effect, 100 complete control), approximately 10 days
# In short: as §1
# [15] = tested on: wheat (Triticum aestivum); experiment: Test A postemergence, wheat; conditions: visual injury, 0 to 100 scale (0 no effect, 100 complete control), approximately 10 days
# In short: as §1
# corn (Zea mays) = experiment: Test A postemergence, corn; conditions: visual injury, 0 to 100 scale (0 no effect, 100 complete control), approximately 10 days
# In short: as §1
# rice (Oryza sativa) = experiment: Test B flooded paddy test, rice; conditions: applied to paddy water, visual rating after 13 to 15 days, scale 0 (no effect) to 100 (complete control)
# In short: (§2)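 Ratings were visual and made relative to untreated controls after 13 to 15 greenhouse days.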
# [16] = tested on: sedge, umbrella (small-flower umbrella sedge, Cyperus difformis); experiment: Test B flooded paddy test, umbrella sedge; conditions: applied to paddy water, visual rating after 13 to 15 days, scale 0 (no effect) to 100 (complete control)
# In short: as §2
# [17] = tested on: ducksalad (Heteranthera limosa); experiment: Test B flooded paddy test, ducksalad; conditions: applied to paddy water, visual rating after 13 to 15 days, scale 0 (no effect) to 100 (complete control)
# In short: as §2
# [18] = tested on: barnyardgrass (Echinochloa crus-galli); experiment: Test B flooded paddy test, barnyardgrass; conditions: applied to paddy water, visual rating after 13 to 15 days, scale 0 (no effect) to 100 (complete control)
# In short: as §2
SMILES,"Plant response rating, Barnyardgrass ([1]; 125 g ai/ha)","Plant response rating, Barnyardgrass ([1]; 500 g ai/ha)","Plant response rating, Kochia (kochia (Kochia scoparia) [2]; 125 g ai/ha)","Plant response rating, Kochia (kochia (Kochia scoparia) [2]; 500 g ai/ha)","Plant response rating, Ragweed ([3]; 125 g ai/ha)","Plant response rating, Ragweed ([3]; 500 g ai/ha)","Plant response rating, Ryegrass, Italian ([4]; 125 g ai/ha)","Plant response rating, Ryegrass, Italian ([4]; 500 g ai/ha)","Plant response rating, Foxtail, Giant ([5]; 125 g ai/ha)","Plant response rating, Foxtail, Giant ([5]; 500 g ai/ha)","Plant response rating, Pigweed ([6]; 125 g ai/ha)","Plant response rating, Pigweed ([6]; 500 g ai/ha)","Plant response rating, Barnyardgrass ([7]; 125 g ai/ha)","Plant response rating, Barnyardgrass ([7]; 500 g ai/ha)","Plant response rating, Kochia (kochia (Kochia scoparia) [8]; 125 g ai/ha)","Plant response rating, Kochia (kochia (Kochia scoparia) [8]; 500 g ai/ha)","Plant response rating, Ragweed ([9]; 125 g ai/ha)","Plant response rating, Ragweed ([9]; 500 g ai/ha)","Plant response rating, Ryegrass, Italian ([10]; 125 g ai/ha)","Plant response rating, Ryegrass, Italian ([10]; 500 g ai/ha)",also measured
O=C1NCC(c2cccc(OCc3ccccc3)c2)C1C(=O)Nc1ccccc1Cl (stereo not drawn) [Compound 67],0,0,0,0,0,0,0,0,0,0,0,0,0,0,0,0,0,0,0,0,"Plant response rating, Foxtail, Giant ([11]; 125 g ai/ha): 0; Plant response rating, Foxtail, Giant ([11]; 500 g ai/ha): 0; Plant response rating, Pigweed ([12]; 125 g ai/ha): 0; Plant response rating, Pigweed ([12]; 500 g ai/ha): 0; Plant response rating, Blackgrass ([13]; 125 g ai/ha): 0; Plant response rating, Blackgrass ([13]; 500 g ai/ha): 0; Plant response rating, Galium ([14]; 125 g ai/ha): 0; Plant response rating, Galium ([14]; 500 g ai/ha): 0; Plant response rating, Wheat ([15]; 125 g ai/ha): 0; Plant response rating, Wheat ([15]; 500 g ai/ha): 0; Plant response rating, Corn (corn (Zea mays); 125 g ai/ha): 0; Plant response rating, Corn (corn (Zea mays); 500 g ai/ha): 0; Plant response rating, Rice (Flood) (rice (Oryza sativa); 500 g ai/ha): 0; Plant response rating, Sedge, Umbrella (Flood) ([16]; 500 g ai/ha): 0; Plant response rating, Ducksalad (Flood) ([17]; 500 g ai/ha): 0; Plant response rating, Barnyardgrass (Flood) ([18]; 500 g ai/ha): 0"
O=C1NCC(c2cccc(Cn3ccc(C(F)(F)F)n3)c2)C1C(=O)Nc1ccc(F)cc1F (stereo not drawn) [Compound 24],0,0,0,0,0,0,0,0,0,0,0,0,0,0,0,0,0,0,0,0,"Plant response rating, Foxtail, Giant ([11]; 125 g ai/ha): 0; Plant response rating, Foxtail, Giant ([11]; 500 g ai/ha): 0; Plant response rating, Pigweed ([12]; 125 g ai/ha): 0; Plant response rating, Pigweed ([12]; 500 g ai/ha): 0; Plant response rating, Blackgrass ([13]; 125 g ai/ha): 0; Plant response rating, Blackgrass ([13]; 500 g ai/ha): 0; Plant response rating, Galium ([14]; 125 g ai/ha): 0; Plant response rating, Galium ([14]; 500 g ai/ha): 0; Plant response rating, Wheat ([15]; 125 g ai/ha): 0; Plant response rating, Wheat ([15]; 500 g ai/ha): 0; Plant response rating, Corn (corn (Zea mays); 125 g ai/ha): 0; Plant response rating, Corn (corn (Zea mays); 500 g ai/ha): 0; Plant response rating, Rice (Flood) (rice (Oryza sativa); 500 g ai/ha): 0; Plant response rating, Sedge, Umbrella (Flood) ([16]; 500 g ai/ha): 0; Plant response rating, Ducksalad (Flood) ([17]; 500 g ai/ha): 0; Plant response rating, Barnyardgrass (Flood) ([18]; 500 g ai/ha): 0"
CC1(COc2cccc(C3CNC(=O)C3C(=O)Nc3ccccc3Cl)c2)COC1 (stereo not drawn) [Compound 16],0,60,0,0,0,0,0,0,10,70,0,0,0,50,0,0,0,0,0,0,"Plant response rating, Foxtail, Giant ([11]; 125 g ai/ha): 0; Plant response rating, Foxtail, Giant ([11]; 500 g ai/ha): 20; Plant response rating, Pigweed ([12]; 125 g ai/ha): 0; Plant response rating, Pigweed ([12]; 500 g ai/ha): 0; Plant response rating, Blackgrass ([13]; 125 g ai/ha): 0; Plant response rating, Blackgrass ([13]; 500 g ai/ha): 0; Plant response rating, Galium ([14]; 125 g ai/ha): 0; Plant response rating, Galium ([14]; 500 g ai/ha): 0; Plant response rating, Wheat ([15]; 125 g ai/ha): 0; Plant response rating, Wheat ([15]; 500 g ai/ha): 0; Plant response rating, Corn (corn (Zea mays); 125 g ai/ha): 0; Plant response rating, Corn (corn (Zea mays); 500 g ai/ha): 0; Plant response rating, Rice (Flood) (rice (Oryza sativa); 250 g ai/ha): 0; Plant response rating, Sedge, Umbrella (Flood) ([16]; 250 g ai/ha): 30; Plant response rating, Ducksalad (Flood) ([17]; 250 g ai/ha): 30; Plant response rating, Barnyardgrass (Flood) ([18]; 250 g ai/ha): 0"
CN1CC(c2cccc(OC(F)(F)C(F)OC(F)(F)F)c2)C(C(=O)Nc2cccc(F)c2F)C1=O (stereo not drawn) [Compound 48],80,90,0,20,0,0,30,30,80,90,70,70,20,50,30,70,0,0,0,40,"Plant response rating, Foxtail, Giant ([11]; 125 g ai/ha): 60; Plant response rating, Foxtail, Giant ([11]; 500 g ai/ha): 80; Plant response rating, Pigweed ([12]; 125 g ai/ha): 60; Plant response rating, Pigweed ([12]; 500 g ai/ha): 90; Plant response rating, Blackgrass ([13]; 125 g ai/ha): 0; Plant response rating, Blackgrass ([13]; 500 g ai/ha): 0; Plant response rating, Galium ([14]; 125 g ai/ha): 60; Plant response rating, Galium ([14]; 500 g ai/ha): 60; Plant response rating, Wheat ([15]; 125 g ai/ha): 0; Plant response rating, Wheat ([15]; 500 g ai/ha): 30; Plant response rating, Corn (corn (Zea mays); 125 g ai/ha): 0; Plant response rating, Corn (corn (Zea mays); 500 g ai/ha): 40; Plant response rating, Rice (Flood) (rice (Oryza sativa); 250 g ai/ha): 0; Plant response rating, Sedge, Umbrella (Flood) ([16]; 250 g ai/ha): 0; Plant response rating, Ducksalad (Flood) ([17]; 250 g ai/ha): 80; Plant response rating, Barnyardgrass (Flood) ([18]; 250 g ai/ha): 0"
